From patent publication EP2929883A1, “Pyrazole derivatives as dihydroorotate dehydrogenase (DHODH) inhibitors” (INSTITUT PASTEUR, priority 2014, dated 2015)
≈ marks a conversion by molar mass, not a printed value.

Experiments:
Jurkat cells = test: inhibition of the proliferation of Jurkat cells (CellTiter-Glo); format: cell-based; conditions: Homo sapiens, 72 h, read-out: IC50, Jurkat cells proliferation
Protocol: As a control, cells were treated with DMSO alone. At t=0 and after 72 hours of culture, the number of living cells was determined using the CellTiter-Glo reagent. The inhibition of cellular proliferation is expressed as a percentage relative to DMSO-treated control wells. Presented results correspond to the mean ± SD of two independent experiments.
Jurkat cells were cultured in at 5.10+4 cells per well in flat-bottom 96-well culture dishes. […] Number of living cells was determined by quantification of adenosine triphosphate (ATP) in culture wells using the CellTiter-Glo Assay (Promega) following manufacturer's recommendations.

measles virus = test: microbe, parasite or virus in culture; conditions: Measles morbillivirus; for IC50: HEK-293T, read-out: IC50 on the measles virus
recombinant human DHODH = biological target: T1, recombinant human DHODH (Homo sapiens, UniProt Q02127); test: recombinant DHODH enzymatic assay (DCIP reduction); format: biochemical; conditions: 25°C, DCIP reduction at 600 nm
T1 construct: N-terminally truncated (first 29 amino acids) human DHODH; made in house; host or cells: E. coli BL21(DE3)/pDIA17
T1 sequence (Q02127 29-395): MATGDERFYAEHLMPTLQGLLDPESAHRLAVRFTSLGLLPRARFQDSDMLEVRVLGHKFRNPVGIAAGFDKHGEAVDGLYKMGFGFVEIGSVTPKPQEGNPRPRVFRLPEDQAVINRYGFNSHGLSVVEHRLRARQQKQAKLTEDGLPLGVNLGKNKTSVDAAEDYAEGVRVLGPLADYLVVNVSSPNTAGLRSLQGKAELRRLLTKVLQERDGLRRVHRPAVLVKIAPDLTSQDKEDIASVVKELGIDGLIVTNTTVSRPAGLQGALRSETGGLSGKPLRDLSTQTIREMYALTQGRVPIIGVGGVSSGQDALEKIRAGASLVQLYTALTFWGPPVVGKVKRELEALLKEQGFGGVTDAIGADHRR
Protocol: Enzymatic assay DHODH activity was determined at 25°C following the reduction of DCIP at 600 nm (ε = 18,800 M^-1 cm^-1) on a spectrophotometer. […] The reaction medium used for this contained 50 mM Tris-HCl pH 8.0, 0.1% Triton X-100, 0.1 mM L-DHO, 0.025 mM CoQ1 and 0.06 mM DCIP. The reaction was started by addition of the enzyme.

C/C(O)=C(\C#N)C(=O)Nc1ccc(C(F)(F)F)cc1 [Teriflunomide, reference compound]
IC50 (Jurkat cells): ~60 µM | MIC50 (measles virus): 50 µM (≈ 13.5 µg/mL)

c1ccc(-c2ccn(-c3ncc(C4CC4)cn3)n2)cc1 [example 122, 5-cyclopropyl-2-(3-phenyl-1H-pyrazol-1-yl)pyrimidine]
IC50 (recombinant human DHODH): 22.8 ± 2.8 µM | MIC50 (measles virus; 24 h): 0.5 to 5 µM (≈ 0.131 to 1.31 µg/mL) | IC50 (measles virus): 3.8 µM

Cc1c(C(O)c2ccccc2)c(OC(C)C)nn1-c1ncc(C2CC2)cn1 (centres unmarked) [example 176, (1-(5-cyclopropylpyrimidin-2-yl)-3-isopropoxy-5-methyl-1H-pyrazol-4-yl)(phenyl)methanol]
IC50 (recombinant human DHODH): 0.016 ± 0.003 µM | MIC50 (measles virus; 24 h): 0.0005 to 0.05 µM (≈ 0.000182 to 0.0182 µg/mL) | IC50 (measles virus): 0.0014 µM
